Assays:
[1] = tested on: Human umbilical vein-derived vascular endothelial cells (HUVEC); assay: Vascular endothelial cell proliferation inhibitory test (VEGF-stimulated HUVEC); type: cell-based; conditions: 120 h, 5 days of culture with VEGF
Description: Human umbilical vein-derived vascular endothelial cells (HUVEC purchased from KURABO […] LTD.) were cultured in an incubator at 37° C., 5% carbon dioxide in a vascular endothelial cell medium (Invitrogen) containing 3% bovine fetal serum and 2.5 ng/mL basic fibroblast growth factor. To be specific, HUVEC was suspended in a vascular endothelial cell medium containing the aforementioned 3% bovine fetal serum and plated on a 96 well flat bottom plate by 50 μL (3000 cells) each well. After culture overnight, various concentrations of the test substance and 120 ng/mL of vascular endothelial growth factor (VEGF) were dissolved in a vascular endothelial cell medium containing 3% bovine fetal serum and added to each well by 50 μL. After 5 days of culture, a Cell counting kit-8 reagent (DOJINDO LABORATORIES) was added to each well by 10 μL, and the mixture was reacted in an incubator at 37° C., 5% carbon dioxide for 2-3 hr. The absorbance at 450 nm was measured by a microtiter plate reader and the cell proliferation inhibitory activity was determined. Using the absorbance with addition of a test substance at each concentration and based on the nonlinear least-squares analysis using a logistic curve of SAS system NLIN procedure, the concentration of the test substance (IC50 value) necessary for showing 50% of the value obtained without addition of the test substance was calculated.

[2] = biological target: T1, Tie2 intracellular domain protein (Homo sapiens, UniProt Q02763); assay: TIE2 kinase inhibitory activity (AlphaScreen); type: biochemical
T1 construct: 50 ng/mL of Tie2 intracellular domain protein (Millipore); purchased Millipore
Description: A test compound dissolved in dimethyl sulfoxide (DMSO) was diluted with a buffer (50 mM Tris-HCl (pH 7.5), 5 mM MgCl2, 5 mM MnCl2, 2 mM dithiothreitol, 0.01% Tween-20). A buffer (10 μL) containing 50 ng/mL of Tie2 intracellular domain protein (Millipore) and 250 ng/ml, of biotin labeled polypeptide biotinyl-poly-Glu:Tyr (4:1) (CIS bio International) was added to the compound solution (5 μL). At 5 min from the mixing of the kinase enzyme, the compound and the biotin labeled polypeptide, a buffer (10 μL) containing 5 μM ATP was added, and the mixture was reacted at 25° C. for 10 min. The reaction was quenched by the addition of 25 μL of a stop solution (100 mM EDTA disodium salt, 62.5 mM HEPES buffer (pH 7.4), 250 mM NaCl, 0.1% bovine serum albumin, 10 μg/ml AlphaScreen assay streptavidin donor beads (Streptavidin Donor beads: PerkinElmer), 10 μg/ml, AlphaScreen assay anti-phosphotyrosine recognition antibody PT-66 binding acceptor beads (Anti-phosphotyrosine (PT-66) Acceptor beads: PerkinElmer)). The reaction solution was allowed to stand at 25° C. for 16 hrs, and the […] were counted using a plate reader (Fusion™ (PerkinElmer)). The kinase inhibitory rate (%) of the test compound was calculated by the following formula: Inhibitory rate (%)=(1−(count of test compound−blank)÷(control−blank))×100
(§1) The count of the solution reacted without addition of the compound was used as a “control”, and the count of the solution without the compound and ATP was used as a “blank”.

[3] = biological target: T2, FLT3 intracellular domain protein (Homo sapiens, UniProt P36888); assay: Fms Like Tyrosine Kinase 3 (FLT3) kinase inhibitory activity (AlphaScreen); type: biochemical; conditions: for inhibition at 1 µM: 1 μM test compound, read-out: inhibitory rate (%) at 1 μM
T2 construct: 7.5 ng/ml of FLT3 intracellular domain protein (Millipore); purchased Millipore
T2 sequence (P36888 564-993 limits assumed): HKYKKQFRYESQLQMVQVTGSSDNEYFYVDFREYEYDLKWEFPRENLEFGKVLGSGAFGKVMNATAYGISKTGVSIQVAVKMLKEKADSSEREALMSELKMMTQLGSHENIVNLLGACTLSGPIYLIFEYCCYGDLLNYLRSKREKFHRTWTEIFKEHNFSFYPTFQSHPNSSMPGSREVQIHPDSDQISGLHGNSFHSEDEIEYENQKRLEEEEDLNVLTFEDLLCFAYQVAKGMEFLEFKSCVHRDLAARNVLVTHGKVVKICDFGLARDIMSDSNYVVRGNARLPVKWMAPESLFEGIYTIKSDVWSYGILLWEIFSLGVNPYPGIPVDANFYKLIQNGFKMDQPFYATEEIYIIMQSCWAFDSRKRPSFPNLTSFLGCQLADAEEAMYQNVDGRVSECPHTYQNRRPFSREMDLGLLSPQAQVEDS
Description: A test compound dissolved in dimethyl sulfoxide (DMSO) was diluted with a buffer (50 mM Tris-HCl (pH 7.5), 5 mM MgCl2, 5 mM MnCl2, 2 mM dithiothreitol, 0.01% Tween-20). To this compound solution (5 μL) was added a buffer (10 μL) containing 7.5 ng/ml of FLT3 intracellular domain protein (Millipore) and 250 ng/mL of biotin labeled polypeptide biotinyl-poly-Glu:Tyr (4:1) (CIS bio International). At 5 min after mixing kinase enzyme and the compound and biotin labeled polypeptide, to the obtained mixture was added a buffer (10 μL) containing ATP (5 μM), the mixture was allowed to react at 25° C. for 10 min and the reaction was quenched with 25 μL of a stop solution (100 mM EDTA disodium salt, 62.5 mM HEPES buffer (pH 7.4), 250 mM NaCl, 0.1% bovine serum albumin, 10 μg/mL AlphaScreen assay streptavidin donor beads (Streptavidin Donor Beads: PerkinElmer), 10 μg/mL AlphaScreen assay anti-phosphotyrosine recognition antibody Y-100 binding acceptor beads (Anti-phosphotyrosine (P-Tyr-100) Acceptor beads: PerkinElmer)). The reaction solution was allowed to stand at 25° C. for 16 hrs, and the wells were counted using a plate reader (Envision™ (PerkinElmer)). The kinase inhibitory rate (%) of the test compound was calculated by the following formula: Inhibitory rate (%)=(1−(count of test compound−blank)÷(control−blank))×100
as §1

[4] = tested on: Human blood cell cancer cell line MV-4-11; assay: Human blood cell cancer cell line MV-4-11 growth inhibitory test; type: cell-based; conditions: MV4-11, 72 h, culture for 3 days; for inhibition at 1 µM: 1 μM test substance, read-out: inhibitory rate (%) at 1 μM
Description: Human blood cell cancer cell line MV-4-11 (ATCC) was cultured in IMDM (Invitrogen) containing 10% bovine fetal serum in an incubator at 37° C., 5% CO2. MV-4-11 cells were treated with trypsin/EDTA and recovered. The cells were suspended in IMDM containing 10% bovine fetal serum, plated on a 96 well flat bottom plate at a cells density of 30,000 cells/50 μL per well. After culturing overnight, various concentrations of test substance were dissolved in IMDM containing 10% bovine fetal serum and added to each well by 50 μL. After culture for 3 days, a Cell counting kit-8 reagent (DOJINDO LABORATORIES) was added to each well by 10 μL, and reacted in an incubator at 37° C., 5% CO2 for 2-3 hr. After the reaction, the absorbance of each well at 450 nm was measured by a microtiter plate reader. The concentration of a test substance necessary for inhibiting the growth by 50% (IC50 value) was calculated using a cell proliferation rate with addition of the test substance at each concentration and according to the nonlinear regression analysis using GraphPad Prism [Sigmoidal dose response (variable slope)].

T1 sequence (Q02763 770-1124 limits assumed): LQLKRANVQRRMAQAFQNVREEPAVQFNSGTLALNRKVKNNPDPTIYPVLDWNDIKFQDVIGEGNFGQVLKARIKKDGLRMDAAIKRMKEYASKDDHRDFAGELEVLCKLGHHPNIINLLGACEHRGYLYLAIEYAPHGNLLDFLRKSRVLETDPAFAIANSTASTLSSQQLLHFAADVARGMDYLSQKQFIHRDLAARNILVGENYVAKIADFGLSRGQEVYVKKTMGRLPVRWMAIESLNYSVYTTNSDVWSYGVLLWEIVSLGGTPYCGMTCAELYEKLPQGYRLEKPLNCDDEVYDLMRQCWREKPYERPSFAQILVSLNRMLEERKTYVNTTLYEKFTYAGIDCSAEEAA

Row | Structure (SMILES) | IC50 [1] [nM] | IC50 [2] [nM] | IC50 [3] [nM] | inhibition at 1 µM [3] [%] | inhibition at 1 µM [4] [%] | IC50 [4] [nM] | inhibition at 1 µM ([2]; 1 μM test compound, read-out: inhibitory rate (%) at 1 μM) [%]
1 | O=C(Nc1ccc(Oc2ccc3nc(NC(=O)C4CC4)cn3c2)c(F)c1)c1cccn(-c2ccc(F)cc2)c1=O [Example 10, N-[4-({2-[(cyclopropylcarbonyl)amino]imidazo[1,2-a]pyridin-6-yl}oxy)-3-fluorophenyl]-1-(4-fluorophenyl)-2-oxo-1,2-dihydropyridine-3-carboxamide] | ≤ 2000 | ≤ 1000 | ≤ 1000 | ≥ 50 | ≥ 90 | ≤ 1000 | –
2 | O=C(Nc1cn2cc(Oc3ccc(NC(=O)C4(C(=O)Nc5ccc(F)cc5)CC4)cc3F)ccc2n1)C1CC1 [Example 11, N-[4-({2-[(cyclopropylcarbonyl)amino]imidazo[1,2-a]pyridin-6-yl}oxy)-3-fluorophenyl]-N′-(4-fluorophenyl)cyclopropane-1,1-dicarboxamide] | ≤ 2000 | ≤ 1000 | ≤ 1000 | – | ≥ 90 | ≤ 1000 | –
3 | O=C(Nc1cn2cc(Oc3ccc(NC(=O)C4(C(=O)Nc5ccccc5)CC4)cc3F)ccc2n1)C1CC1 [Example 14, N-[4-({2-[(cyclopropylcarbonyl)amino]imidazo[1,2-a]pyridin-6-yl}oxy)-3-fluorophenyl]-N′-phenylcyclopropane-1,1-dicarboxamide] | ≤ 2000 | ≤ 1000 | ≤ 1000 | – | ≥ 90 | ≤ 1000 | –
4 | O=C(Nc1nc2ccc(Oc3ccc(NC(=O)C4(C(=O)Nc5ccccc5)CC4)cc3F)cc2s1)C1CC1 [Example 18, N-[4-({2-[(cyclopropylcarbonyl)amino]-1,3-benzothiazol-6-yl}oxy)-3-fluorophenyl]-N′-phenylcyclopropane-1,1-dicarboxamide] | ≤ 2000 | ≤ 1000 | ≤ 1000 | ≥ 50 | ≥ 90 | ≤ 1000 | –
5 | Cc1ccc(C(=O)Nc2ccc(Oc3ccc4nc(NC(=O)C5CC5)cn4c3)cc2)c(=O)n1-c1ccc(F)cc1 [Example 28, N-[4-({2-[(cyclopropylcarbonyl)amino]imidazo[1,2-a]pyridin-6-yl}oxy)phenyl]-1-(4-fluorophenyl)-6-methyl-2-oxo-1,2-dihydropyridine-3-carboxamide] | ≤ 2000 | ≤ 1000 | ≤ 1000 | ≥ 50 | ≥ 90 | ≤ 1000 | –
6 | Cc1ccc(C(=O)Nc2ccc(Oc3ccc4nc(NC(=O)C5CC5)cn4c3)c(F)c2)[n+]([O-])c1-c1ccc(F)cc1 [Example 29, N-[4-({2-[(cyclopropylcarbonyl)amino]imidazo[1,2-a]pyridin-6-yl}oxy)-3-fluorophenyl]-6-(4-fluorophenyl)-5-methylpyridine-2-carboxamide 1-oxide] | ≤ 2000 | ≤ 1000 | ≤ 1000 | – | ≥ 90 | ≤ 1000 | –
7 | Cc1ccc(C(=O)Nc2ccc(Oc3ccc4nc(NC(=O)C5CC5)cn4c3)c(F)c2)c(=O)n1-c1ccc(F)cc1.Cl [Example 32, N-[4-({2-[(cyclopropylcarbonyl)amino]imidazo[1,2-a]pyridin-6-yl}oxy)-3-fluorophenyl]-1-(4-fluorophenyl)-6-methyl-2-oxo-1,2-dihydropyridine-3-carboxamide hydrochloride] | ≤ 2000 | – | – | – | ≥ 90 | ≤ 1000 | –
8 | Cc1ccc(C(=O)Nc2ccc(Oc3ccc4nc(NC(=O)C5CC5)cn4c3)c(F)c2)c(=O)n1-c1ccc(F)c(F)c1 [Example 45, N-[4-({2-[(cyclopropylcarbonyl)amino]imidazo[1,2-a]pyridin-6-yl}oxy)-3-fluorophenyl]-1-(3,4-difluorophenyl)-6-methyl-2-oxo-1,2-dihydropyridine-3-carboxamide] | ≤ 2000 | ≤ 1000 | ≤ 1000 | – | ≥ 90 | ≤ 1000 | –
9 | Cc1c(C(=O)Nc2ccc(Oc3ccc4nc(NC(=O)C5CC5)cn4c3)c(F)c2)c(=O)n(-c2ccccc2)n1C [Example 46, N-[4-({2-[(cyclopropylcarbonyl)amino]imidazo[1,2-a]pyridin-6-yl}oxy)-3-fluorophenyl]-1,5-dimethyl-3-oxo-2-phenyl-2,3-dihydro-1H-pyrazole-4-carboxamide] | ≤ 2000 | ≤ 1000 | ≤ 1000 | – | ≥ 90 | ≤ 1000 | –
10 | O=C(Nc1cn2cc(Oc3ccc(NC(=O)N4CCN(c5ccc(F)cc5)C4=O)cc3F)ccc2n1)C1CC1 [Example 53, N-[4-({2-[(cyclopropylcarbonyl)amino]imidazo[1,2-a]pyridin-6-yl}oxy)-3-sfluorophenyl]-3-(4-fluorophenyl)-2-oxoimidazolidine-1-carboxamide] | ≤ 2000 | ≤ 1000 | ≤ 1000 | ≥ 50 | ≥ 90 | ≤ 1000 | ≥ 50
11 | Cc1ccc(C(=O)Nc2ccc(Oc3ccc4nc(NC(=O)C5CC5)cn4c3)c(Cl)c2)c(=O)n1-c1ccc(F)cc1 [Example 57, N-[3-chloro-4-({2-[(cyclopropylcarbonyl)amino]imidazo[1,2-a]pyridin-6-yl}oxy)phenyl]-1-(4-fluorophenyl)-6-methyl-2-oxo-1,2-dihydropyridine-3-carboxamide] | ≤ 2000 | ≤ 1000 | ≤ 1000 | – | ≥ 90 | ≤ 1000 | –
